Measured values reported in patent US7772263B2, “Compounds for the treatment of inflammatory disorders” (Schering Corporation, priority 2006, dated 2010).

The molecules below were run against T1, purified catalytic domain of recombinant human TACE (rhTACEc) (Homo sapiens, UniProt P78536, N452Q/S266A) (assay: TACE kinetic assay, cleavage of internally quenched fluorescent peptide substrate SPDL-3). Details: TACE; class letters A-D; read-out: Ki Rating.
T1 construct: rhTACEc, Residue 215 to 477 with two mutation (S266A and N4520) and a 6×His tail; 6xHis (C); made in house; host or cells: baculovirus/Hi5 insect cells
Format: biochemical

T1 sequence (P78536 215-477 S266A/N452Q limits assumed): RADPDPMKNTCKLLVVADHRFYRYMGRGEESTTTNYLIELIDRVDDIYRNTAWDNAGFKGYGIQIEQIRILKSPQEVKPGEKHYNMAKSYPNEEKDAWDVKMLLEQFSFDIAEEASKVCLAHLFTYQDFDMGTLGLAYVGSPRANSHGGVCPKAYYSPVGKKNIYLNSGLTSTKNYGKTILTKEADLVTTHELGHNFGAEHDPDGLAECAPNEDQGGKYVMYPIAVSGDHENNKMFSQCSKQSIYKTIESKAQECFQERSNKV

Row | Ki | Structure (SMILES)
1 | < 5 nM | COc1ccc2c(c1)C(=O)N(C[C@@]1(C#Cc3cc4ccccc4[nH]c3=O)NC(=O)NC1=O)C2 [Compound 1569]
2 | < 5 nM | COc1ccc2c(c1)C(=O)N(C[C@@]1(C#Cc3ccc(C(=O)NS(=O)(=O)C4CC4)cc3)NC(=O)NC1=O)C2 [Compound 1570]
3 | < 5 nM | COc1ccc2c(c1)C(=O)N(C[C@@]1(C#Cc3cnc(Cl)c(O)c3)NC(=O)NC1=O)C2 [Compound 1571]
4 | < 5 nM | COc1ccc2c(c1)C(=O)N(C[C@@]1(C#Cc3cnc(N4CCSCC4)nc3N)NC(=O)NC1=O)C2 [Compound 1572]
5 | < 5 nM | COc1ccc2c(c1)C(=O)N(C[C@@]1(C#Cc3cnc(Cl)nc3N)NC(=O)NC1=O)C2 [Compound 1573]
6 | < 5 nM | COc1ccc2c(c1)C(=O)N(C[C@@]1(C#Cc3ccc(OC4SC(=O)NC4=O)cc3)NC(=O)NC1=O)C2 (stereo partly drawn) [Compound 1574]
7 | < 5 nM | COc1ccc2c(c1)C(=O)N(C[C@@]1(C#Cc3ccc(C(C)=NO)nc3)NC(=O)NC1=O)C2 [Compound 1575]
8 | < 5 nM | COc1ccc2c(c1)C(=O)N(C[C@@]1(C#Cc3ccc4c(c3)CCC43NC(=O)NC3=O)NC(=O)NC1=O)C2 (stereo partly drawn) [Compound 1576]
9 | < 5 nM | COc1ccc2c(c1)C(=O)N(C[C@@]1(C#Cc3ccc(C4(C5CC5)NC(=O)NC4=O)cc3)NC(=O)NC1=O)C2 (stereo partly drawn) [Compound 1577]
10 | < 5 nM | COc1ccc2c(c1)C(=O)N(C[C@@]1(C#Cc3ccc(C)[nH]c3=O)NC(=O)NC1=O)C2 [Compound 1578]
11 | < 5 nM | COc1ccc2c(c1)C(=O)N(C[C@@]1(C#Cc3cnccc3OC)NC(=O)NC1=O)C2 [Compound 1579]
12 | < 5 nM | COc1ccc2c(c1)C(=O)N(C[C@@]1(C#Cc3cccc(C4(C)NC(=O)NC4=O)c3)NC(=O)NC1=O)C2 (stereo partly drawn) [Compound 1580]
